Laboratory results published in US12329754B2 (priority 2018, dated 2025).
Where a name gives a salt, the structure may show the parent alone. Read-outs that look alike come from different tables or passages of the source.

Tests used:
[1] = tested on: EBOV-Zaire GP/HIV-luc pseudovirus; assay type: cell-based, Zaire ebolavirus
[2] = tested on: EBOV-Zaire GP/HIV-luc pseudovirus; experiment: organism not typed; assay type: cell-based, Zaire ebolavirus; conditions: for EC50: HEK-293T, read-out: half-maximum effect concentration (EC50) against EBOV
[3] = tested on: MARV-GP/HIV-luc pseudovirus; experiment: microbe, parasite or virus in culture; assay type: cell-based; conditions: read-out: EC50 against the Marburg virus entering the host
[4] = tested on: LASV-GP/HIV-luc pseudovirus; experiment: organism not typed; assay type: cell-based; conditions: read-out: EC50 against the Lassa virus entering the host

SMILES | inhibition effect on the virus when added at 6 h (TOA) [1] | inhibition rate on the EBOV-Zaire GP/HIV-luc pseudovirus [2] | EC50 ([2]; 48 h) | EC50 [2] | EC50 [3] | EC50 [4] | effect on cell activity (CCK-8, OD 450 nm) (293T cells)
O=C1Nc2ccc(Cl)cc2[C@@](C#CC2CC2)(C(F)(F)F)O1 [efavirenz] | still had an inhibition effect | – | – | – | – | – | –
COc1cc2c3cc1Oc1c(OC)c(OC)cc4c1[C@@H](Cc1ccc(O)c(c1)Oc1ccc(cc1)C[C@@H]3N(C)CC2)N(C)CC4 [berbamine dihydrochloride] | – | over 80% | 490 nM | 490 nM | 990 nM | 2640 nM | no significant effect
